# Test system: Zymosan Induced Inflammation
# Assay: Zymosan-induced paw inflammation (arthritis) in rats, percent volume increase of the paw
# Format: in vivo, rat
# Conditions: for % Oedema Volume change: 3.6 × 10^-4 mg/g IP vs control; for % Volume Increase, Mean of 3 experiments / % Volume Increase: 3.6 × 10^-4 mg/g IP
# Source text: A reversible arthritic condition was induced according to known procedures for the Zymosan-induced arthritis (See J. P. Tarayre, A. Delphon, et al., Pharmacological studies in zymosan inflammation in rats and mice, I: Zymosan-induced paw edema in rat and mice, Pharmacological Research, 21, (#4) 375-384 (1989); Takuo Sato, Yoshitaka Ino, et al., Inhibitory effects of a novel synthetic protease inhibitor (FUT-175), on the paw edema in rats and Zymosan-induced compliment activation in vitro, Japan J. Pharmacol., 42,587-589 (1986); David K. Gremmell, et al., Comparative effects of drugs on four paw edema models on the rat, Agents and Actions 4, (#1) 107-116 (1979); and D. C. Keystone, et al., Zymosan-induced arthritis: A model of chronic proliferative arthritis following activation of the alternative pathway of compliment, Arthritis and Rheumatism 20 (#7) 1396-1401 (1977)).
# Each rat (250 g each) was kept in a restraining cage with light ether anesthesia until the administration of the drug. The procedure involves the intramuscular (IM) injection of 1 mg of Zymosan in 50 μL (microliters) of normal saline in the pad of a hind paw of the rat. Swelling becomes evident within 20 minutes and reaches a maximum within 1.5 hours. The swelling disappears after 24 hours. In the Figures the reversal to normal size of the paw within 24 hours is not shown. The degree of swelling is measured by a water displacement method and the percent (%) of volume increase of the paw is plotted against time (see J. P. Tarayre, A. Delphon, et al., Pharmacological studies in zymosan inflammation in rats and mice. I: Zymosan-induced paw edema in rat and mice, Pharmaco-logical Research, 21, (#4) 375-384 (1989); Takuo Sato, Yoshitaka Ino, et al., Inhibitory effects of a novel synthetic protease inhibitor (FUT-175), on the paw edema in rats and Zymosan-induced compliment activation in vitro, Japan J. Pharmacol., 42, 587-589 (1986)).
# Control was conducted by injecting I.P. 100 μl of propylene glycol (the vehicle) 15 min. prior to Zymosan administration. […] Data from tables 1 and 1a are plotted in FIGS. 1 and 1a respectively.
# In the experimental procedure the drug [PC-16, […] (FIG. 2) or 90 μg/rat (FIG. 3)] is dissolved in 100 μL of propylene glycol and is injected IP to the rats. Fifteen minutes later the Zymosan (1mg/50 μL of normal saline) solution is injected IM into the paw of the rats. The degree of swelling is subsequently measured at various time intervals for a period of 24 hours and is reported up to 4 hours.
smiles,measurement,setting,value
CCCCNC(=O)Sc1nnnn1-c1ccccc1 [PC-16],percent volume increase of rat paw,"36 μg/kg IP 15 min prior to Zymosan, 1.5 hour, control 60%",20%
same,swelling of rat paw,360 μg/kg IP 15 min prior to Zymosan,practically no swelling
same,% Oedema Volume change,10 min,-85.0%
same,% Oedema Volume change,20 min,-94.4%
same,% Oedema Volume change,30 min,-94.2%
same,% Oedema Volume change,40 min,-94.7%
same,% Oedema Volume change,50 min,-95.1%
same,% Oedema Volume change,60 min,-94.9%
same,% Oedema Volume change,65 min,-94.8%
same,% Oedema Volume change,70 min,-94.6%
same,% Oedema Volume change,80 min,-93.8%
same,% Oedema Volume change,95 min,-94.0%
same,% Oedema Volume change,100 min,-94.3%
same,% Oedema Volume change,105 min,-94.1%
same,% Oedema Volume change,115 min,-93.7%
same,% Oedema Volume change,120 min,-93.3%
same,% Oedema Volume change,130 min,-94.1%
same,% Oedema Volume change,135 min,-93.2%
same,% Oedema Volume change,145 min,-92.6%
same,% Oedema Volume change,150 min,-91.9%
same,% Oedema Volume change,160 min,-91.6%
same,% Oedema Volume change,175 min,-91.5%
same,% Oedema Volume change,190 min,-91.9%
same,% Oedema Volume change,200 min,-91.7%
same,% Oedema Volume change,205 min,-91.3%
same,% Oedema Volume change,210 min,-90.7%
same,% Oedema Volume change,220 min,-90.6%
same,% Oedema Volume change,225 min,-89.8%
same,% Oedema Volume change,240 min,-90.9%
same,"% Volume Increase, Mean of 3 experiments",0 min,0.00%
same,"% Volume Increase, Mean of 3 experiments",5 min,0.89%
same,"% Volume Increase, Mean of 3 experiments",10 min,1.43%
same,"% Volume Increase, Mean of 3 experiments",15 min,1.43%
same,"% Volume Increase, Mean of 3 experiments",20 min,1.61%
same,"% Volume Increase, Mean of 3 experiments",30 min,2.19%
same,"% Volume Increase, Mean of 3 experiments",40 min,2.37%
same,"% Volume Increase, Mean of 3 experiments",45 min,2.00%
same,"% Volume Increase, Mean of 3 experiments",50 min,2.37%
same,"% Volume Increase, Mean of 3 experiments",55 min,2.92%
same,"% Volume Increase, Mean of 3 experiments",60 min,2.92%
same,% Volume Increase,65 min,2.92%
same,% Volume Increase,70 min,3.13%
same,"% Volume Increase, Mean of 3 experiments",75 min,3.34%
same,"% Volume Increase, Mean of 3 experiments",80 min,3.52%
same,"% Volume Increase, Mean of 3 experiments",85 min,3.52%
same,"% Volume Increase, Mean of 3 experiments",90 min,3.52%
same,% Volume Increase,95 min,3.52%
same,"% Volume Increase, Mean of 3 experiments",100 min,3.33%
same,% Volume Increase,105 min,3.49%
same,"% Volume Increase, Mean of 3 experiments",110 min,3.65%
same,% Volume Increase,115 min,3.78%
same,"% Volume Increase, Mean of 3 experiments",120 min,3.90%
same,"% Volume Increase, Mean of 3 experiments",125 min,3.71%
same,"% Volume Increase, Mean of 3 experiments",130 min,3.35%
same,% Volume Increase,135 min,3.53%
same,"% Volume Increase, Mean of 3 experiments",145 min,3.71%
same,"% Volume Increase, Mean of 3 experiments",150 min,3.90%
same,"% Volume Increase, Mean of 3 experiments",160 min,3.90%
same,"% Volume Increase, Mean of 3 experiments",170 min,3.52%
same,% Volume Increase,175 min,3.70%
same,"% Volume Increase, Mean of 3 experiments",180 min,3.88%
same,"% Volume Increase, Mean of 3 experiments",190 min,3.34%
same,% Volume Increase,200 min,3.41%
